Results published in ChEMBL document CHEMBL1144518, “1-Methylpyridinium-4-(4-phenylmethanethiosulfonate) iodide, MTS-MPP+, a novel scanning cysteine accessibility method (SCAM) reagent for monoamine transporter studies” (Bioorg Med Chem, 2007).
Active and inactive are the calls of the source. No cut-off for these calls is given here.

Experiments:
[1] = target: Sodium-dependent serotonin transporter (Homo sapiens, UniProt P31645, G498C); test: Decrease in [3H]5-HT uptake at human SERT G498C mutant transfected in HEK293 cells; format: cell-based
[2] = target: Sodium-dependent serotonin transporter (Homo sapiens, UniProt P31645, C109A); test: Inhibition of [3H]5-HT uptake at human SERT C109A mutant transfected in HEK cells; format: cell-based, HEK293
[3] = system: Sodium-dependent serotonin transporter (Homo sapiens), P31645 [C109A]; test: Blockade of leak current of human SERT C109A mutant expressed in Xenopus laevis oocytes assessed as outward current at 30 uM; format: cell-based; conditions: Oocyte
[4] = system: Sodium-dependent serotonin transporter (Homo sapiens), P31645 [C109A]; test: Activation of inward current at human SERT C109A mutant expressed in Xenopus laevis oocytes; format: cell-based; conditions: Oocyte

SMILES	EC50 [1] [µM]	Ki [2] [µM]	Activity [3]	Activity [4]
C[N+](C)(C)CCSS(C)(=O)=O	3.16			
C[n+]1ccc(-c2ccccc2)cc1		48		
C[n+]1ccc(-c2ccc(SS(C)(=O)=O)cc2)cc1	3.98	1300	Active	inactive
